In US11406640B2, “JAK1 pathway inhibitors for the treatment of chronic lung allograft dysfunction” (Incyte Corporation, priority 2019, dated 2022):
“Also recorded” adds a separate entry of the source. Like-named read-outs stand apart in the source and are kept apart here.

Columns and labels:
[1] = system: patients with post-lung transplant BOS; details: switching from cyclosporine to tacrolimus; cited from earlier work
[2] = system: alloreactive mouse model (GVHD); details: prophylactic and therapeutic dosing, 60 mg/kg per day or 120 mg/kg per day; cited from earlier work
patients with aGVHD = details: human, in vivo, cited from earlier work
human JAK1 = human JAK1 (Homo sapiens, UniProt P23458); experiment: In vitro JAK kinase assay (Example A), JAK1; assay type: biochemical; details: 1 mM ATP
Excerpt: In some embodiments, the JAK1 pathway inhibitor is a compound of Table 2, or a pharmaceutically acceptable salt thereof.

human JAK2 = human JAK2 (Homo sapiens (Human), UniProt O60674); experiment: In vitro JAK kinase assay (Example A), JAK2; assay type: biochemical; details: JAK2/JAK1 IC50 ratio, 1 mM ATP
Experimental: The compounds in Table 2 were tested in this assay and shown to have the IC50 values in Table 2.

[3] = system: patients with post-lung transplant BOS; details: patients with an FEV1 response vs those without; cited from earlier work
post-lung transplant BOS = details: prophylactic, compared to placebo; cited from earlier work
patients with lung cGVHD = details: response defined by an increase in FEV1 of ≥10%; cited from earlier work
patients with cGVHD = details: human, in vivo; cited from earlier work
[4] = system: pediatric patients with lung cGVHD; details: cited from earlier work

Chain of human JAK2 (O60674 828-1132): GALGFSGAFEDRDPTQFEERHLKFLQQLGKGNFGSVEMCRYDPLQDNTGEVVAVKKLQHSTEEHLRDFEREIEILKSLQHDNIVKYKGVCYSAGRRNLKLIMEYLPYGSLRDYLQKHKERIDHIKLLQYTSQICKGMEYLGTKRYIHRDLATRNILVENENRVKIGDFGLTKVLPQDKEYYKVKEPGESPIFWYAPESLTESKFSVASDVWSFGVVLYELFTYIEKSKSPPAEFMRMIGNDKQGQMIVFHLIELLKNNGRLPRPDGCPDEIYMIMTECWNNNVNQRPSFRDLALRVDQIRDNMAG

## C=CC[C@@H]1/C=C(\C)C[C@H](C)C[C@H](OC)[C@H]2O[C@@](O)(C(=O)C(=O)N3CCCC[C@H]3C(=O)O[C@H](/C(C)=C/[C@@H]3CC[C@@H](O)[C@H](OC)C3)[C@H](C)[C@@H](O)CC1=O)[C@H](C)C[C@@H]2OC [tacrolimus]
[1]
  loss of predicted FEV1: decrease in the loss of predicted FEV1

## N#CCC1(n2cc(-c3ncnc4[nH]ccc34)cn2)CN(C2CCN(C(=O)c3ccnc(C(F)(F)F)c3F)CC2)C1 [Compound 1, {1-{1-[3-Fluoro-2-(trifluoromethyl)isonicotinoyl]piperidin-4-yl}-3-[4-(7H-pyrrolo[2,3-d]pyrimidin-4-yl)-1H-pyrazol-1-yl]azetidin-3-yl}acetonitrile]
[2]
  GVHD score: improvement in the GVHD score
Patients with aGVHD; listed as itacitinib
  clinical efficacy in acute GVHD: demonstrated clinical efficacy; also recorded: significant clinical activity
Human JAK1
  IC50: < 10 nM
Human JAK2
  JAK2/JAK1: >10

## CC[C@H]1OC(=O)[C@H](C)[C@@H](O[C@H]2C[C@@](C)(OC)[C@@H](O)[C@H](C)O2)[C@H](C)[C@@H](O[C@@H]2O[C@H](C)C[C@H](N(C)C)[C@H]2O)[C@](C)(O)C[C@@H](C)CN(C)[C@H](C)[C@@H](O)[C@]1(C)O [Azithromycin]
[3]
  overall survival: overall survival advantage
post-lung transplant BOS
  cases of BOS: fewer cases of BOS
  overall survival: overall survival was not affected

## N#CC[C@H](C1CCCC1)n1cc(-c2ncnc3[nH]ccc23)cn1 [ruxolitinib]
Patients with aGVHD
  clinical efficacy in acute GVHD: demonstrated clinical efficacy
Patients with lung cGVHD
  patients with FEV1 responses: 4 out of 5
Patients with cGVHD
  clinical efficacy in chronic GVHD: produced clinical efficacy
[4]; 1 patient
  increase in FEV1: 9%
[4]; 5 pediatric patients (4 evaluable)
  responses: 2
[4]; final patient
  decrease of the steroid requirement: > 50%
[4]; human, in vivo
  patients able to wean steroids completely: Four out of five
